# According to PMC9170106, “Pre-clinical evaluation of LASSBio-1491: From in vitro pharmacokinetic study to in vivo leishmanicidal activity” (PLoS ONE, 2022):
# Test system: L. major promastigote 5-ASKH substrain
# Assay: In vitro activity against promastigotes, 5-ASKH
# Format: cell-based, Leishmania major
# Description: L. major promastigotes LV39 (MRHO/SU/59/P) were obtained from João […] Preto Medical School- USP. L. major IOC/[…] promastigotes (MHOM/SU/1973/5-ASKH) were obtained from Leishmania collection of the Oswaldo Cruz Institute-Fiocruz. L. major promastigotes LV39 (MRHO/SU/59/P) and L. major IOC/[…] (MHOM/SU/1973/5-ASKH) were grown in a Schneider's medium (Sigma-Aldrich, St. […] The determination of the leishmanicidal activity of LASSBio-1491 against L. major promastigotes was carried out according to the methodology described by […] and colleagues (1996). […] After 48h of incubation in a Biochemical Oxygen Demand (B.O.D.) incubator, the promastigotes were counted using a hemocytometer. The results obtained were expressed as the mean ± S.E.M. of the number of promastigotes from triplicate cultures of representative assays, with the data analyzed by ANOVA and Dunnett hoc tests, considering a significance level of p < 0.05.
smiles,measurement,setting,value
O=C(N/N=C/c1ccc([N+](=O)[O-])o1)NNC(=O)c1ccc(Cl)cc1 [LASSBio-1491],times less potent than pentamidine,,about 10 times
same,IC50,"Leishmania major, 48 h",7.5 ± 0.3 µM
same,Emax,"Leishmania major, read-out: Maximum effect (% ± S.E.M.)",68.4 ± 0.1%
